From PubChem BioAssay (NCI)
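All cell lines were grown in 96-well plates and treated with compound for 48 hours. Definition used: TGI = concentration required for complete inhibition of growth.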

system: NCI/ADR-RES ovarian; test: growth of human tumour cells (NCI), 48 h

Compound	TGI
CO/C(=N\N=C\c1ccc(Cl)c(Cl)c1)c1ccncc1	> 10 µM
COc1cc(OC)c2c(=O)c3cccc(C)c3n(C)c2c1	> 100 µM
COC(=O)C(=O)C(C(=O)C(=O)Nc1ccc(C)cc1C)c1nc2ccc(Cl)cc2[nH]c1=O (stereo unspecified)	> 100 µM
Cc1c(/C=N/NC(=S)N2CCCCC2)c(=O)n(-c2ccccc2)n1C	> 100 µM
CCSC1=N/C(=C\c2ccco2)C(=O)N1	> 100 µM
COc1ccc(-c2nc(Nc3ccccc3)sc2Cc2sc(Nc3ccccc3)nc2-c2ccc(OC)cc2)cc1	> 100 µM
C[C@@H]1CC[C@@H]2[C@@H](C1)O[C@@H]([C@@H](C)OCc1ccccc1)SC2(C)C	40.2 µM
Cc1sc2nc3n(c(=O)c2c1C)N=CN(c1ccc(Cl)cc1)C3	> 100 µM
COc1cc(C2c3cc4c(cc3C(=O)C3CCC(=O)N32)OCO4)cc(OC)c1O (stereo unspecified)	> 50 µM

system: NCI-H522 lung; test: growth of human tumour cells (NCI), 48 h

Compound	TGI
CCOC(=O)C1=C(OC(OCC)C(CC)[Se]c2ccccc2)CCC1 (stereo unspecified)	29.1 µM
CCCc1cc(OC(=O)c2c(O)cc(OC)cc2CCC)cc(O)c1C(=O)O	43.9 µM
Cc1ccc(-c2cc(-c3ccccc3)c(C#N)c(=O)[nH]2)cc1	> 100 µM
O=[N+]([O-])c1ccc(-c2nn3c(C45CC6CC(CC(C6)C4)C5)nnc3s2)c(Cl)c1	> 100 µM
O=[N+]([O-])c1cccc(Nc2nc(Cl)nc(Cl)n2)c1	> 100 µM
O=C(Cn1c2ccc(Br)cc2c2nc3ccccc3nc21)Nc1ccccc1	40.5 µM
COc1ccc(-c2nc(-c3cnccn3)n(C3OC(CO)C(O)C3O)n2)cc1 (stereo unspecified)	> 10 µM
CC(=O)[C@H]1[C@H](O)C[C@@]2(C)[C@@H]3CCc4cc(O)c(OC5OC(CO)C(O)C(O)C5O)cc4C3(C)C(=O)C[C@]12C (stereo partly specified)	> 100 µM
COC(=O)[C@@](NC(=O)OCc1ccccc1)([C@H](C)O)C(F)(F)F	> 100 µM
O=c1[nH][nH]c(=O)c2c1ccc1oc3ccccc3c12	> 100 µM
COC(=O)/C=C(\C)CCC1SC1(C)C (stereo unspecified)	> 100 µM
C=C1C2=C(CCCC2)C(=O)OC12CCCCC2	> 100 µM
COc1cc(OC)c2c(=O)c3cccc(C)c3n(C)c2c1	> 100 µM
COC(=O)C(=O)C(C(=O)C(=O)Nc1ccc(C)cc1C)c1nc2ccc(Cl)cc2[nH]c1=O (stereo unspecified)	> 100 µM
CC1=CCC(C(C)(C)NC(=O)c2ccccc2)C/C1=N/O (stereo unspecified)	> 100 µM
Cc1c(/C=N/NC(=S)N2CCCCC2)c(=O)n(-c2ccccc2)n1C	> 100 µM
CCSC1=N/C(=C\c2ccco2)C(=O)N1	> 100 µM
CCOC(=O)CCC(NC(=O)c1ccc(NC(OC)c2nc3cc(C(F)(F)F)ccc3nc2-c2ccccc2)cc1)C(=O)OCC (stereo unspecified)	25.6 µM
CCCCOC/N=C(/N)NC#N	> 100 µM
C[C@@H]1CC[C@@H]2[C@@H](C1)O[C@@H]([C@@H](C)OCc1ccccc1)SC2(C)C	31.1 µM
Cc1sc2nc3n(c(=O)c2c1C)N=CN(c1ccc(Cl)cc1)C3	> 100 µM
COc1ccc2[nH]c3c(c2c1)[C@H]1CCC(C(C)(C)C)C[C@H]1[C@H]1C(=O)N(c2ccccc2)C(=O)[C@@H]31 (stereo partly specified)	> 49.5 µM

system: HT29 colon; test: growth of human tumour cells (NCI), 48 h

Compound	TGI
CCOC(=O)C1=C(OC(OCC)C(CC)[Se]c2ccccc2)CCC1 (stereo unspecified)	58.1 µM
CCCc1cc(OC(=O)c2c(O)cc(OC)cc2CCC)cc(O)c1C(=O)O	> 100 µM
Cc1ccc(-c2cc(-c3ccccc3)c(C#N)c(=O)[nH]2)cc1	> 100 µM
O=[N+]([O-])c1ccc(-c2nn3c(C45CC6CC(CC(C6)C4)C5)nnc3s2)c(Cl)c1	> 100 µM
O=[N+]([O-])c1cccc(Nc2nc(Cl)nc(Cl)n2)c1	> 100 µM
CC(Cn1c2c(c3cc(O)ccc31)CCc1ccc(O)cc1-2)N(C)C (stereo unspecified)	35.8 µM
O=C(Cn1c2ccc(Br)cc2c2nc3ccccc3nc21)Nc1ccccc1	> 100 µM
Cc1cc(O)c(/C=N/C(=S)Nc2ccc(S(N)(=O)=O)cc2)c(=O)o1	> 100 µM
COc1ccc(-c2nc(-c3cnccn3)n(C3OC(CO)C(O)C3O)n2)cc1 (stereo unspecified)	> 10 µM
CC(=O)[C@H]1[C@H](O)C[C@@]2(C)[C@@H]3CCc4cc(O)c(OC5OC(CO)C(O)C(O)C5O)cc4C3(C)C(=O)C[C@]12C (stereo partly specified)	> 100 µM
O=C(NCCN1CCCCC1)c1cccc(I)c1	> 100 µM
COC(=O)[C@@](NC(=O)OCc1ccccc1)([C@H](C)O)C(F)(F)F	> 100 µM
O=c1[nH][nH]c(=O)c2c1ccc1oc3ccccc3c12	> 100 µM
COC(=O)/C=C(\C)CCC1SC1(C)C (stereo unspecified)	> 100 µM
C=C1C2=C(CCCC2)C(=O)OC12CCCCC2	> 100 µM
COc1cc(OC)c2c(=O)c3cccc(C)c3n(C)c2c1	> 100 µM
COC(=O)C(=O)C(C(=O)C(=O)Nc1ccc(C)cc1C)c1nc2ccc(Cl)cc2[nH]c1=O (stereo unspecified)	> 100 µM
CC1=CCC(C(C)(C)NC(=O)c2ccccc2)C/C1=N/O (stereo unspecified)	> 100 µM
Cc1c(/C=N/NC(=S)N2CCCCC2)c(=O)n(-c2ccccc2)n1C	> 100 µM
CCSC1=N/C(=C\c2ccco2)C(=O)N1	> 100 µM
COc1ccc(-c2nc(Nc3ccccc3)sc2Cc2sc(Nc3ccccc3)nc2-c2ccc(OC)cc2)cc1	> 100 µM
CCOC(=O)CCC(NC(=O)c1ccc(NC(OC)c2nc3cc(C(F)(F)F)ccc3nc2-c2ccccc2)cc1)C(=O)OCC (stereo unspecified)	22.1 µM
CCCCOC/N=C(/N)NC#N	> 100 µM
C[C@@H]1CC[C@@H]2[C@@H](C1)O[C@@H]([C@@H](C)OCc1ccccc1)SC2(C)C	36.7 µM
Cc1sc2nc3n(c(=O)c2c1C)N=CN(c1ccc(Cl)cc1)C3	> 100 µM
